Experimental data: the supplement of paper PMC10307832

What was measured:
Assay in all cases: relative viability (nuclei count vs DMSO), 5 days (fraction); higher = more cells survive
Temozolomide = compound: Cn1nnc2c(C(N)=O)ncn2c1=O [Temozolomide]
Method in brief: (§1)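 MetaXpress counted nuclei in 4× images of lung cancer cell lines that had been fixed, permeabilised and Hoechst-stained in one step. Before that, cells in 1536-well plates were kept overnight at 37 °C, pinned with five √10-spaced library-drug doses on vehicle-anchored plates, and cultured 5 days without medium change. Viability takes treated-well nuclei over vehicle-well nuclei and uses the median across plates. Plates were accepted only at control CV below 25% and at least one doubling.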

AZD5582 = compound: C[C@@H](C(=O)N[C@@H](C1CCCCC1)C(=O)N2CCC[C@H]2C(=O)N[C@@H]3[C@@H](CC4=CC=CC=C34)OCC#CC#CCO[C@@H]5CC6=CC=CC=C6[C@@H]5NC(=O)[C@@H]7CCCN7C(=O)[C@H](C8CCCCC8)NC(=O)[C@H](C)NC)NC [AZD5582]
Method in brief: as §1

AZD5582 + Alpelisib = compound: C[C@@H](C(=O)N[C@@H](C1CCCCC1)C(=O)N2CCC[C@H]2C(=O)N[C@@H]3[C@@H](CC4=CC=CC=C34)OCC#CC#CCO[C@@H]5CC6=CC=CC=C6[C@@H]5NC(=O)[C@@H]7CCCN7C(=O)[C@H](C8CCCCC8)NC(=O)[C@H](C)NC)NC [AZD5582] + Cc1nc(NC(=O)N2CCC[C@H]2C(N)=O)sc1-c1ccnc(C(C)(C)C(F)(F)F)c1 [Alpelisib] (partner 2 µM)
Method in brief: (§2)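 Each reported value is a median over duplicate plates. It expresses relative viability: treated-well nuclei count divided by vehicle-well nuclei count. Lung cancer cell lines in 1536-well plates were dosed by pin tool a day after seeding, alone with one drug or with a fixed anchor-drug dose plus five library-drug doses (not always all listed) in √10 steps, and nuclei were counted after 5 days.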

AZD5582 + Crizotinib = compound: C[C@@H](C(=O)N[C@@H](C1CCCCC1)C(=O)N2CCC[C@H]2C(=O)N[C@@H]3[C@@H](CC4=CC=CC=C34)OCC#CC#CCO[C@@H]5CC6=CC=CC=C6[C@@H]5NC(=O)[C@@H]7CCCN7C(=O)[C@H](C8CCCCC8)NC(=O)[C@H](C)NC)NC [AZD5582] + C[C@@H](Oc1cc(-c2cnn(C3CCNCC3)c2)cnc1N)c1c(Cl)ccc(F)c1Cl [Crizotinib] (partner 1 µM)
Method in brief: as §2

Cell Line: NCI-H1703
- relative viability (Temozolomide; 0.2 µM): 0.986
- relative viability (Temozolomide; 0.6325 µM): 0.947
- relative viability (Temozolomide; 2 µM): 1.29
- relative viability (Temozolomide; 6.325 µM): 0.825
- relative viability (Temozolomide; 20 µM): 0.965
- relative viability (AZD5582; 0.005 µM): 0.853
- relative viability (AZD5582; 0.01581 µM): 0.952
- relative viability (AZD5582; 0.05 µM): 0.925
- relative viability (AZD5582 + Alpelisib; first compound 0.001581 µM): 0.208
- relative viability (AZD5582 + Alpelisib; first compound 0.005 µM): 0.323
- relative viability (AZD5582 + Alpelisib; first compound 0.01581 µM): 0.358
- relative viability (AZD5582 + Alpelisib; first compound 0.05 µM): 0.255
- relative viability (AZD5582 + Crizotinib; first compound 0.001581 µM): 0.463
- relative viability (AZD5582 + Crizotinib; first compound 0.005 µM): 0.428
- relative viability (AZD5582 + Crizotinib; first compound 0.01581 µM): 0.59
- relative viability (AZD5582 + Crizotinib; first compound 0.05 µM): 0.459
